According to patent US5834461A, “Tricyclic benzazepine vasopressin antagonists” (American Cyanamid Company, priority 1997, dated 1998):
Each block holds one molecule with its values, some of them ahead of it.

Tests used:
[1] = biological target: vasopressin V1 receptor (rat liver plasma membranes) (Rattus norvegicus, UniProt P30560); assay: Binding Assay to Rat Hepatic V1 Receptors; conditions: for inhibition at 10 µM: 2 h, rat hepatic, read-out: V1, % at concentration in brackets; for IC50: rat hepatic V1
vasopressin V1 receptor (rat liver plasma membranes), sequence (P30560 whole entry): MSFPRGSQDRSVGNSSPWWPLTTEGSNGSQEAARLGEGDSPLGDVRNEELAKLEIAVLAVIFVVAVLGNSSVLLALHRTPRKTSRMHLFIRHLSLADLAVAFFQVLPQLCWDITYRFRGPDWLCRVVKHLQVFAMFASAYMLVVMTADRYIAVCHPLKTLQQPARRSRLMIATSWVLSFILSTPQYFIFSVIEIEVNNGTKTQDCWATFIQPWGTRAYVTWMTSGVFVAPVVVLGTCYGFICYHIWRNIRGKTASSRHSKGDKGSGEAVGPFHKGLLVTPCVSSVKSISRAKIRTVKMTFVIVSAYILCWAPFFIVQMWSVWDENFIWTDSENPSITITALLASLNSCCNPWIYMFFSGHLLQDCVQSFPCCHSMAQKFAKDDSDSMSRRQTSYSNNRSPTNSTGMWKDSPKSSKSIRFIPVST

[2] = biological target: T1, rat kidney medullary V2 receptors (Rattus norvegicus, UniProt Q00788); assay: Binding Assay to Rat Kidney Medullary V2 Receptors; conditions: for inhibition at 10 µM: rat kidney, read-out: V2, % at concentration in brackets; for IC50: rat kidney medullary V2
T1 construct: Medullary tissues from rat kidneys are dissected out; from tissue; host or cells: rat kidney medulla membranes
T1 sequence (Q00788 whole entry): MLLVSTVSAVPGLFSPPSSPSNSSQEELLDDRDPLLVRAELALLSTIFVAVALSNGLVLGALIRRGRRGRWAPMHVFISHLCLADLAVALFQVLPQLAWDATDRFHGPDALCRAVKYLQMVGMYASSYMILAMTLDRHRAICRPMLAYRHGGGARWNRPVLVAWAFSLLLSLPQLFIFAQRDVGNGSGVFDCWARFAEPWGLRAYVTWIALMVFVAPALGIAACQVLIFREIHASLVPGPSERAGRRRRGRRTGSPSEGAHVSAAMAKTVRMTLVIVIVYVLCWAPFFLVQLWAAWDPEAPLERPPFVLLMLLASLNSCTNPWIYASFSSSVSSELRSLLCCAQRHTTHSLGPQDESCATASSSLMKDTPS
In short: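 Competition binding: [3H]AVP at 0.8 nM, test compounds from 50% DMSO, and membranes from rat kidney medulla, left 120 min on the bench. Filtration then liquid scintillation counting measured bound ligand; 1.0 μM unlabeled ligand set non-specific binding.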

[3] = biological target: T2, oxytocin receptors (rat uterus membranes) (Rattus norvegicus, UniProt P70536); assay: Oxytocin Receptor Binding; parameters: species or system female Sprague-Dawley rats
T2 construct: The resulting pellet containing the oxytocin receptors is resuspended; from tissue; host or cells: uterus membranes of DES-treated female Sprague-Dawley rats
T2 sequence (P70536 1-388): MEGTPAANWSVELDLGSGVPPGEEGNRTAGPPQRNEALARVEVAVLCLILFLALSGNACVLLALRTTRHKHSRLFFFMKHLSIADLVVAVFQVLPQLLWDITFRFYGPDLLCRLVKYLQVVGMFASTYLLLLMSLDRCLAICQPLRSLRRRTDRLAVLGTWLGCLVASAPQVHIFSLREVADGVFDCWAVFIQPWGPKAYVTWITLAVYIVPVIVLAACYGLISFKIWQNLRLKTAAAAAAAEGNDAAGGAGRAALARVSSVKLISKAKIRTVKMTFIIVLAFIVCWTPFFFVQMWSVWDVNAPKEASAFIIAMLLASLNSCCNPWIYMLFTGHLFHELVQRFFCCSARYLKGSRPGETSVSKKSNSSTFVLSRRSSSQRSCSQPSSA
Procedure: Female Sprague-Dawley rats weighing approximately 200-250 g are injected intramuscularly (i.m.) with 0.3 mg/kg of body weight of diethylstilbestrol (DES). The rats are sacrificed 18 hours later under pentobarbital anesthesia. The uteri are dissected out, cleaned of fat and connective tissues and rinsed in 50 ml of normal saline. The tissue pooled from six rats is homogenized in 50 ml of […] Tris.HCl, containing 0.5 mM dithiothreitol and 1.0 mM EDTA, adjusted to pH 7.4, using a polytron at setting 6 with three passes of 10 sec each. The homogenate is passed through two (2) layers of cheesecloth and the filtrate centrifuged at 1000×g for 10 min. The clear supernatant is removed and recentrifuged at 165,000×g for 30 min. The resulting pellet containing the oxytocin receptors is resuspended in 50.0 mM Tris.HCl containing 5.0 mM MgCl2 at pH 7.4, to give a protein concentration of 2.5 mg/ml of tissue suspension. This preparation is used in subsequent binding assays with [^3 H]Oxytocin.
Binding of 3,5-[^3 H]Oxytocin ([^3 H]OT) to its receptors is done in microtiter plates using [^3 H]OT, at various concentrations, in an assay buffer of 50.0 mM Tris.HCl, pH 7.4 and containing 5.0 mM MgCl2, and a mixture of protease inhibitors: BSA, 0.1 mg; aprotinin, 1.0 mg; 1,10-phenanthroline, 2.0 mg; […], 10.0 mg; and PMSF, 0.3 mg per 100 ml of buffer solution. Non-specific binding is determined in the presence of 1.0 uM unlabeled OT. The binding reaction is terminated after 60 min., at 22° C., by rapid filtration through glass fiber filters using a Brandel® cell harvester (Biomedical Research and Development Laboratories, Inc., Gaithersburg, Md.). Competition experiments are conducted at equilibrium using 1.0 nM [^3 H]OT and varying the concentration of the displacing agents. The concentrations of agent displacing 50% of [^3 H]OT at its sites (IC50) are calculated by a computer assisted LUNDON-2 program (LUNDON SOFTWARE INC., Ohio, USA).

[4] = test system: vasopressin V2; assay: Vasopressin V2 Antagonist Activity in Conscious Hydrated Rats (diuretic effect); type: in vivo, normal Sprague-Dawley rats; conditions: AVP 0.4 μg/kg i.p.
In short: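 Conscious rats were dosed orally at 0.1–100 mg/kg, and AVP 0.4 μg/kg i.p. in peanut oil followed 1 h later. Urine volume, osmolality and Na/K/Cl were compared against AVP-treated controls, with non-AVP rats as water-loading controls.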

[5] = test system: vasopressin V1; assay: Vasopressin V1 Antagonist Activity in Conscious Rats (vasopressin vasopressor response); type: in vivo, rat (spontaneously hypertensive rats); parameters: Average Change: unit not given here; conditions: for MAX % Inhibition / Time of max % inhibition: 30 mg/kg i.v.
In short: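 Conscious rats had the ventral caudal tail artery cannulated into the lower abdominal aorta under local procaine anesthesia, plus a caudal vein cannula for intravenous dosing. Pulsatile blood pressure was recorded via a Statham P23Db transducer. Vasopressor responses to vasopressin injections were measured before and after compound dosing, with percent antagonism calculated relative to the pre-drug response taken as 100%.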

[6] = 10 mg/kg i.v., VAS 0.01 i.u./kg, 30 min
[7] = 10 mg/kg i.v., VAS 0.02 i.u./kg, 30 min
[8] = 20 mg/kg i.v., VAS 0.01 i.u./kg, 60 min
[9] = 20 mg/kg i.v., VAS 0.01 i.u./kg, 90 min
[10] = 20 mg/kg i.v., VAS 0.01 i.u./kg, 120 min
[11] = 20 mg/kg i.v., VAS 0.01 i.u./kg, 180 min
[12] = 20 mg/kg i.v., VAS 0.01 i.u./kg, 240 min
[13] = 20 mg/kg i.v., VAS 0.01 i.u./kg, 300 min
[14] = 20 mg/kg i.v., VAS 0.02 i.u./kg, 60 min
[15] = 20 mg/kg i.v., VAS 0.02 i.u./kg, 90 min
[16] = 20 mg/kg i.v., VAS 0.02 i.u./kg, 120 min
[17] = 20 mg/kg i.v., VAS 0.02 i.u./kg, 180 min
[18] = 20 mg/kg i.v., VAS 0.02 i.u./kg, 240 min
[19] = 20 mg/kg i.v., VAS 0.02 i.u./kg, 300 min

SMILES: O=C(Nc1ccc(C(=O)N2Cc3ccccc3Cc3ccccc32)cc1)c1cc(Cl)cc(Cl)c1Cl [Example 249, N-[4-[(6,11-Dihydro-5H-dibenz[b,e]azepin-5-yl)-carbonyl]phenyl]-2,3 5-trichlorobenzamide]
inhibition at 10 µM [1]: 61% | inhibition at 10 µM [2]: 88% | inhibition at 10 µM [3]: 38%

SMILES: O=C(Nc1ccc(C(=O)N2Cc3ccccc3Cc3ccccc32)cc1)c1ccc(Cl)c(Cl)c1 [Example 250, N-[4-[(6,11-Dihydro-5H-dibenz[b,e]azepin-5-yl)-carbonyl]phenyl]-3,4-dichlorobenzamide]
inhibition at 10 µM [1]: 62% | inhibition at 10 µM [2]: 77% | Osmolality ([4]; 30 mg/kg orally): 1378 mOsm/kg | Urine Volume ([4]; 30 mg/kg orally): 6.5 ml/4 hrs. | inhibition at 10 µM [3]: 15%

SMILES: Cc1cccc(C(=O)Nc2ccc(C(=O)N3Cc4ccccc4Cc4ccccc43)cc2)c1C [Example 11, N-[4-[(6,11-Dihydro-5H-dibenz[b,e]azepin-5-yl)carbonyl]phenyl]-2,3-dimethylbenzamide]
IC50 [1]: 160 nM | IC50 [2]: 33 nM | Osmolality ([4]; 30 mg/kg orally): 1114 ± 55 mOsm/kg | Urine Volume ([4]; 30 mg/kg orally): 9.7 ± 0.6 ml/4 hrs. | inhibition at 10 µM [3]: 71% | IC50 ([3]; first part of Table V): 4400 nM

SMILES: Cc1c(F)cccc1C(=O)Nc1ccc(C(=O)N2Cc3ccccc3Cc3ccccc32)cc1 [Example 254, N-(4-[(6,11-Dihydro-5H-dibenz[b,e]azepin-5-yl)-carbonyl]phenyl]-2-methyl-3-fluorobenzamide]
IC50 [1]: 100 nM | IC50 [2]: 37 nM | MAX % Inhibition [5]: 74% | Time of max % inhibition [5]: 60 min | inhibition at 10 µM [3]: 95% | IC50 ([3]; first part of Table V): 1900 nM

SMILES: Cc1ccccc1C(=O)Nc1ccc(C(=O)N2Cc3ccccc3Sc3ccccc32)cc1 [Example 62, N-[4-[(Dibenz[b,f][1,4]thiazepin-10(11H)yl)carbonyl]-phenyl]-2-methylbenzamide]
IC50 [1]: 404 nM | IC50 [2]: 858 nM | Osmolality ([4]; 10 mg/kg orally): 1034 mOsm/kg | Urine Volume ([4]; 10 mg/kg orally): 7.7 ml/4 hrs. | Average Change [5, 6]: 57 | Inhibition [5, 6]: -44% | Average Change [5, 7]: 61.5 | Inhibition [5, 7]: -2% | Average Change [5, 8]: 13 | Inhibition [5, 8]: 67% | Average Change [5, 9]: 23 | Inhibition [5, 9]: 42% | Average Change [5, 10]: 23.5 | Inhibition [5, 10]: 41% | Average Change [5, 11]: 24.5 | Inhibition [5, 11]: 38% | Average Change [5, 12]: 30 | Inhibition [5, 12]: 24% | Average Change [5, 13]: 25 | Inhibition [5, 13]: 37% | Average Change [5, 14]: 29.5 | Inhibition [5, 14]: 51% | Average Change [5, 15]: 54 | Inhibition [5, 15]: 11% | Average Change [5, 16]: 50 | Inhibition [5, 16]: 17% | Average Change [5, 17]: 15 | Inhibition [5, 17]: 75% | Average Change [5, 18]: 40.5 | Inhibition [5, 18]: 33% | Average Change [5, 19]: 38 | Inhibition [5, 19]: 37%

The next lines start with results.

inhibition at 10 µM [1]: 64% | inhibition at 10 µM [2]: 33% | inhibition at 10 µM [3]: 78% | IC50 ([3]; second part of Table V): 2500 nM
SMILES: CN(C)CC(=O)Nc1ccc(C(=O)N2Cc3ccccc3Cc3ccccc32)cc1 [Example 454]

IC50 [1]: 1300 nM | IC50 [2]: 5.3 nM | IC50 ([3]; second part of Table V): 275 nM
SMILES: Cc1c(F)cccc1C(=O)Nc1ccc(C(=O)N2CCc3c[nH]nc3-c3ccccc32)c(Cl)c1 [Example 582]

inhibition at 10 µM [3]: 15%
SMILES: Cc1ccccc1COC(=O)c1ccc(C(=O)N2Cc3ccccc3Cc3ccccc32)cc1 [Example 266, (2-Methylphenyl)methyl 4-[(6,11-dihydro-5H-dibenz[b,e]azepin-5-yl)carbonyl)benzoate]
Osmolality ([4]; 10 mg/kg orally): 1186 mOsm/kg | Urine Volume ([4]; 10 mg/kg orally): 4.3 ml/4 hrs. | MAX % Inhibition [5]: 21% | Time of max % inhibition [5]: 120 min

inhibition at 10 µM [1]: 87% | inhibition at 10 µM [2]: 29% | inhibition at 10 µM [3]: 33%
SMILES: O=C(c1ccc(NS(=O)(=O)c2ccccc2Cl)cc1)N1Cc2ccccc2Cc2ccccc21 [Example 450, 5-[4-[[(2-Chlorophenyl)sulfonyl]amino]benzoyl]-6,11-dihydro-5H-dibenz [b,e]azepine]

IC50 [1]: 100 nM | IC50 [2]: 54 nM | inhibition at 10 µM [3]: 47% | IC50 ([3]; first part of Table V): 6500 nM
SMILES: O=C(Nc1ccc(C(=O)N2Cc3ccccc3Cc3ccccc32)c(Cl)c1)c1ccc(Cl)cc1Cl [Example 256, N-[4-[(6,11-Dihydro-5H-dibenz[b,e]azepin-5-yl)-carbonyl]-3-chlorophenyl]-2,4-dichlorobenzamide]

IC50 [1]: 82 nM | IC50 [2]: 40 nM | inhibition at 10 µM [3]: 95% | IC50 ([3]; second part of Table V): 330 nM
SMILES: O=C(Nc1ccc(C(=O)N2CCc3c[nH]nc3-c3ccccc32)cc1)c1ccc(Cl)cc1Cl [Example 583, N-[4-[(4,5-Dihydropyrazolo[4,3-d][1]benzazepin-6(2H)-yl)carbonyl]phenyl]-2,4-dichlorobenzamide]

inhibition at 10 µM [1]: 99% | inhibition at 10 µM [2]: 81% | inhibition at 10 µM [3]: 2%
SMILES: Cc1ccccc1C(=O)Nc1ccc(C(=O)N2CCc3cnoc3-c3ccccc32)cc1 [Example 345, N-[4-[(4,5-Dihydro-6H-isoxazolo[4,5-d][1]benzazepin-6-yl)carbonyl]phenyl]-2-methylbenzamide]
